Like-named read-outs stand apart in the source and are kept apart here.
Experiment: TD-6450 phase I clinical study (SAD/MAD): pharmacokinetics
Format: in vivo, human
Conditions: human
Protocol: Primary and secondary outcomes were pre-defined as follows: Safety and tolerability as a primary outcome, pharmacokinetics as a secondary outcome. Safety and tolerability were evaluated using standard measures, including adverse event (AE) monitoring, clinical laboratory tests (hematology, serum chemistry, coagulation, and urinalysis), vital signs, physical examinations, and 12-lead electrocardiograms (ECGs). […]
This study was conducted in two parts, Part A (SAD) and Part B (MAD). For the Part A, the age of enrolled subjects ranged from 20 to 60 years, with a mean age range of 32.1 to 46.2 years. Most subjects were male (73 total subjects) and most were white (55 subjects) or black (22 subjects). For Part B of the study, ages ranged from 23 to 60 years with a similar mean age across treatment groups. Most subjects were male (25 total subjects) and all were either white (18 subjects) or black (12 subjects). For each part of the study, the mean body mass index (BMI) and creatinine clearance were similar across treatment groups. […] Part A: Healthy subjects were sequentially enrolled and randomly assigned to each dose cohort (up to 10 dose-ascending cohorts were planned, including a fed arm in the food effect cohort) to receive either a single dose of TD-6450 or placebo. For each dose cohort, 8 subjects were randomized in a 3:1 ratio (6 subjects received TD-6450 and 2 subjects received placebo). The starting dose of TD-6450 was 0.5 mg with a planned maximum dose of 1000 mg. Upon review of the 500-mg cohort PK data, the decision was made to not escalate to the 1000-mg cohort because of exposure saturation at ≥ 500 mg. The following doses were administered: 0.5 mg, 1.5 mg, 5 mg, 15 mg, 30 mg, 60 mg, 120 mg, 240 mg, and 500 mg. Part B: Healthy subjects were sequentially enrolled in 3 ascending dose cohorts (TD-6450 60 mg, 120 mg, and 240 mg) and randomly assigned to receive either TD-6450 or placebo as once daily doses for 14 days. For each dose cohort, 10 subjects were randomized in a 4:1 ratio (8 subjects received TD-6450 and 2 subjects received placebo). Blinded safety, tolerability, and available PK data after each dose cohort were reviewed by the Safety Data Review Committee (SDRC) before escalation to the next dosing cohort for both part A and B. Subjects of the clinical study were randomly assigned to each cohort. Randomizations codes were assigned to the subjects. All study subjects, study investigators, and the sponsor’s staff involved in the conduct of the study were blinded to treatment assignment. The only personnel who had access to the randomization code before database lock were: The pharmacist or pharmacy staff member who prepared drug or placebo capsules for administration to the subject according to the randomization code and the bioanalytical contract laboratory that analyzed the PK samples (plasma and urine).

## CNC(=O)N1C[C@@H](C)N(c2ccc(C(=O)Nc3ccc(-c4ccc(-c5c[nH]c([C@@H]6CCCN6C(=O)[C@@H](NC(=O)OC)C(C)C)n5)cc4)c(OC(F)(F)F)c3)cn2)C[C@@H]1C [TD-6450]
female, plasma, oral, 15 mg, Female subjects, SAD arm NCT02022306, Dose 15.00, 144 Hours, read-out: Concentration
  concentration at 144 h: 4 ng/mL
female, plasma, oral, 15 mg, Female subjects, SAD arm NCT02022306, Dose 15.00, 168 Hours, read-out: Concentration
  concentration at 168 h: 3.58 ng/mL
female, plasma, oral, 30 mg, Female subjects, SAD arm NCT02022306, Dose 30.00, 3 Hours, read-out: Concentration
  concentration at 3 h: 24.8 ng/mL
female, plasma, oral, 30 mg, Female subjects, SAD arm NCT02022306, Dose 30.00, 4 Hours, read-out: Concentration
  concentration at 4 h: 40.6 ng/mL
female, plasma, oral, 30 mg, Female subjects, SAD arm NCT02022306, Dose 30.00, 6 Hours, read-out: Concentration
  concentration at 6 h: 70.6 ng/mL
female, plasma, oral, 30 mg, Female subjects, SAD arm NCT02022306, Dose 30.00, 8 Hours, read-out: Concentration
  concentration at 8 h: 69.5 ng/mL
female, plasma, oral, 30 mg, Female subjects, SAD arm NCT02022306, Dose 30.00, 12 Hours, read-out: Concentration
  concentration at 12 h: 45.3 ng/mL
female, plasma, oral, 30 mg, Female subjects, SAD arm NCT02022306, Dose 30.00, 15 Minutes, read-out: Concentration
  concentration at 15 min: 0 ng/mL
female, plasma, oral, 30 mg, Female subjects, SAD arm NCT02022306, Dose 30.00, 24 Hours, read-out: Concentration
  concentration at 24 h: 34.1 ng/mL
female, plasma, oral, 30 mg, Female subjects, SAD arm NCT02022306, Dose 30.00, 48 Hours, read-out: Concentration
  concentration at 48 h: 22.3 ng/mL
female, plasma, oral, 30 mg, Female subjects, SAD arm NCT02022306, Dose 30.00, 72 Hours, read-out: Concentration
  concentration at 72 h: 16.1 ng/mL
female, plasma, oral, 30 mg, Female subjects, SAD arm NCT02022306, Dose 30.00, 96 Hours, read-out: Concentration
  concentration at 96 h: 10.8 ng/mL
female, plasma, oral, 30 mg, Female subjects, SAD arm NCT02022306, Dose 30.00, 120 Hours, read-out: Concentration
  concentration at 120 h: 9.27 ng/mL
female, plasma, oral, 30 mg, Female subjects, SAD arm NCT02022306, Dose 30.00, 144 Hours, read-out: Concentration
  concentration at 144 h: 6.93 ng/mL
female, plasma, oral, 30 mg, Female subjects, SAD arm NCT02022306, Dose 30.00, 168 Hours, read-out: Concentration
  concentration at 168 h: 5.12 ng/mL
female, plasma, oral, 60 mg, Female subjects, SAD arm NCT02022306, Dose 60.00, 1 Hour, read-out: Concentration
  concentration at 1 h: 7.46 ng/mL
female, plasma, oral, 60 mg, Female subjects, SAD arm NCT02022306, Dose 60.00, 2 Hours, read-out: Concentration
  concentration at 2 h: 114 ng/mL
female, plasma, oral, 60 mg, Female subjects, SAD arm NCT02022306, Dose 60.00, 3 Hours, read-out: Concentration
  concentration at 3 h: 70.5 ng/mL
female, plasma, oral, 60 mg, Female subjects, SAD arm NCT02022306, Dose 60.00, 4 Hours, read-out: Concentration
  concentration at 4 h: 94.5 ng/mL
female, plasma, oral, 60 mg, Female subjects, SAD arm NCT02022306, Dose 60.00, 6 Hours, read-out: Concentration
  concentration at 6 h: 109 ng/mL
female, plasma, oral, 60 mg, Female subjects, SAD arm NCT02022306, Dose 60.00, 8 Hours, read-out: Concentration
  concentration at 8 h: 87.4 ng/mL
female, plasma, oral, 60 mg, Female subjects, SAD arm NCT02022306, Dose 60.00, 12 Hours, read-out: Concentration
  concentration at 12 h: 60.5 ng/mL
female, plasma, oral, 60 mg, Female subjects, SAD arm NCT02022306, Dose 60.00, 15 Minutes, read-out: Concentration
  concentration at 15 min: 0 ng/mL
female, plasma, oral, 60 mg, Female subjects, SAD arm NCT02022306, Dose 60.00, 24 Hours, read-out: Concentration
  concentration at 24 h: 38.9 ng/mL
female, plasma, oral, 60 mg, Female subjects, SAD arm NCT02022306, Dose 60.00, 30 Minutes, read-out: Concentration
  concentration at 30 min: 0.74 ng/mL
female, plasma, oral, 60 mg, Female subjects, SAD arm NCT02022306, Dose 60.00, 48 Hours, read-out: Concentration
  concentration at 48 h: 29.3 ng/mL
female, plasma, oral, 60 mg, Female subjects, SAD arm NCT02022306, Dose 60.00, 72 Hours, read-out: Concentration
  concentration at 72 h: 22.4 ng/mL
female, plasma, oral, 60 mg, Female subjects, SAD arm NCT02022306, Dose 60.00, 96 Hours, read-out: Concentration
  concentration at 96 h: 17.2 ng/mL
female, plasma, oral, 60 mg, Female subjects, SAD arm NCT02022306, Dose 60.00, 120 Hours, read-out: Concentration
  concentration at 120 h: 12.8 ng/mL
female, plasma, oral, 60 mg, Female subjects, SAD arm NCT02022306, Dose 60.00, 144 Hours, read-out: Concentration
  concentration at 144 h: 11.1 ng/mL
female, plasma, oral, 60 mg, Female subjects, SAD arm NCT02022306, Dose 60.00, 168 Hours, read-out: Concentration
  concentration at 168 h: 8.61 ng/mL
In vivo, 1.5 mg, Male subjects, SAD arm NCT02022306, Dose 1.50, 3 Hours, read-out: Concentration
  concentration at 3 h: 1.48 ng/mL
In vivo, 1.5 mg, Male subjects, SAD arm NCT02022306, Dose 1.50, 4 Hours, read-out: Concentration
  concentration at 4 h: 1.92 ng/mL
In vivo, 1.5 mg, Male subjects, SAD arm NCT02022306, Dose 1.50, 6 Hours, read-out: Concentration
  concentration at 6 h: 1.07 ng/mL
In vivo, 5 mg, Female subjects, SAD arm NCT02022306, Dose 5.00, 120 Hours, read-out: Concentration
  concentration at 120 h: 1.07 ng/mL
In vivo, 5 mg, Male subjects, SAD arm NCT02022306, Dose 5.00, 48 Hours, read-out: Concentration
  concentration at 48 h: 1.81 ng/mL
In vivo, 5 mg, Male subjects, SAD arm NCT02022306, Dose 5.00, 120 Hours, read-out: Concentration
  concentration at 120 h: 1.48 ng/mL
In vivo, 15 mg, Male subjects, SAD arm NCT02022306, Dose 15.00, 168 Hours, read-out: Concentration
  concentration at 168 h: 2.59 ng/mL
In vivo, 30 mg, Male subjects, SAD arm NCT02022306, Dose 30.00, 2 Hours, read-out: Concentration
  concentration at 2 h: 8.22 ng/mL
In vivo, 120 mg, Male subjects, SAD arm NCT02022306, Dose 120.00, 30 Minutes, read-out: Concentration (ng/ml)
  concentration at 30 min: 1.01 ng/mL
In vivo, 120 mg, Male subjects, SAD arm NCT02022306, Dose 120.00, 168 Hours, read-out: Concentration (ng/ml)
  concentration at 168 h: 10.2 ng/mL
In vivo, 240 mg, Male subjects, SAD arm NCT02022306, Dose 240.00, 312 Hours, read-out: Concentration (ng/ml)
  concentration at 312 h: 4.88 ng/mL
In vivo, 48 h
  TD-6450 concentration: 107.00 ng/mL
In vivo, 72 h
  TD-6450 concentration: 273.00 ng/mL
In vivo, 96 h
  TD-6450 concentration: 123.00 ng/mL
In vivo, 120 h
  TD-6450 concentration: 102.00 ng/mL
In vivo, 144 h
  TD-6450 concentration: 74.40 ng/mL
In vivo, 336 h
  TD-6450 concentration: 6.38 ng/mL
plasma, oral, 60 mg, SAD 60 mg, read-out: Cmax Mean ± SD
  Cmax: 123 ± 60.3 nM
plasma, oral, 60 mg, SAD 60 mg, read-out: t1/2 Mean ± SD (converted)
  half-life: 2.56 ± 0.492 days
male, in vivo
  TD-6450 concentration: 0.00 ng/mL
male, in vivo, 2 h
  TD-6450 concentration: 179.00 ng/mL
male, in vivo, 3 h
  TD-6450 concentration: 273.00 ng/mL
male, in vivo, 4 h
  TD-6450 concentration: 303.00 ng/mL
male, in vivo, 6 h
  TD-6450 concentration: 309.00 ng/mL
male, in vivo, 12 h
  TD-6450 concentration: 216.00 ng/mL
male, in vivo, 24 h
  TD-6450 concentration: 144.00 ng/mL
male, in vivo, 48 h
  TD-6450 concentration: 90.40 ng/mL
male, in vivo, 72 h
  TD-6450 concentration: 61.10 ng/mL
male, in vivo, 96 h
  TD-6450 concentration: 40.80 ng/mL
